Consider 7 compounds from patent US20180344735A1, “USE OF sGC STIMULATORS FOR THE TREATMENT OF GASTROINTESTINAL SPHINCTER DYSFUNCTION” (Ironwood Pharmaceuticals, Inc., priority 2015, published 2018).

By EC50 is commonly meant the concentration giving half of the maximal effect.

Experiment [1] concerns human lower esophageal sphincter (LES) tissues. Put plainly: Ex vivo relaxation of carbachol-pre-contracted human lower esophageal sphincter (LES) muscle strips, organ bath. It counts as cell-based. The protocol:
The objective of this study was to determine the relaxation effects of two sGC stimulators, Compound A and Compound B (depicted below) on human lower esophageal sphincter (LES) tissues ex vivo. Human lower esophageal sphincter muscle strips were mounted in a wire myograph apparatus and pre-contracted with carbachol (Cch). A cumulative concentration response curve (CCRC) of Compound A and Compound B was then performed on the tissues. The concentration response was performed with the compounds alone, and/or with the test compounds in the presence of a fixed concentration of the NO donor DETA-NONOate.
Compound A and Compound B were stored at room temperature. On each experimental day, 10 mM stock of the test compound was prepared in DMSO. Further dilutions up to 0.1 μM were made serially in ethanol, and subsequently in distilled water, depending on solubility of the compounds in those solvents. Compound A and Compound B Vehicle solutions were made by following the same serial dilution methods
DETA-NONOate was stored at −20° C. On each experimental day, a stock solution of 100 mM was prepared in Phosphate Buffered Saline (PBS), pH 8 (Boston Bioproducts). A 1:10 dilution from the stock was made in PBS pH 8, to obtain a concentration of 10 mM.
SNP was stored at −20° C. On each experimental day, a stock solution of 100 mM was prepared in distilled water. 25 μl of the 100 mM stock was added to each bath for a final concentration of 100 μM in bath.
Tissues were obtained postmortem. Only macroscopically normal tissue that was obtained from donors with no known recent history of gastrointestinal disease.
Human LES mucosa-free muscle strips, of approximately 15 mm in length and 2-3 mm width were dissected free from surrounding tissue and mounted on tissue posts in 25 mL organ baths (Panlab 16 channel automated organ bath and thermostatic controller) containing physiological saline solution (PSS; composition: 119.0 mM NaCl, 4.70 mM KCl, 1.20 mM MgSO4, 24.9 mM NaHCO3, 1.20 mM KH2PO4, 2.50 mM CaCl2, 11.1 mM glucose), aerated with 95% O2/5% CO2, warmed and maintained at approximately 37° C. The PSS solution was supplemented with 1 μM indomethacin. The LES strips were mounted on the tissue posts and allowed to equilibrate for approximately 30 minutes.
The LES strips were set to a tension of 2.0 g+0.2 g. Baths were washed approximately every 15 minutes over a 60-minute period, with re-tensioning to 2.0±0.2 g if tension dropped below 1.0 g.
The viability of the LES muscle strips was tested by application of 80 mM KCl, looking for maximum contractility response. Upon plateau all baths were washed three times with PSS and the tension was allowed to return to baseline levels. The strips that responded to the KCl functional check were used for CCh-induced contractions.
For each one of compounds A and B, experiments were conducted with LES tissues from two human donors on two separate days.
Upon stabilization of baseline tension, each of the following experiments was allocated to one bath such that 9 or more muscle strips were set up for each compound on each experimental day.
Compound A Experiments with tissues from Donor 1: • 1. CCRC to DETA-NO vehicle • 2. CCRC to Compound A vehicle • 3. CCRC to DETA-NO • 4. CCRC to DETA-NO • 5. CCRC to Compound A • 6. CCRC to Compound A • 7. Since DETA-NO relaxed LES, a CCRC to Compound A was performed in the presence of DETA-NO at a sub-threshold concentration (1 μM, determined in conditions 3 and 4) • 8. CCRC to Compound A in the presence of DETA-NO ([…]) • 9. CCRC to Compound A vehicle in the presence of DETA-NO ([…]).
Compound A Experiments with tissues from Donor 2: • 1. CCRC to Compound A vehicle • 2. CCRC to Compound A vehicle • 3. CCRC to Compound A vehicle in the presence of 10 μM DETA-NO • 4. CCRC to Compound A vehicle in the presence of 30 μM DETA-NO • 5. CCRC to Compound A • 6. CCRC to Compound A • 7. CCRC to Compound A in the presence of 10 μM DETA-NO • 8. CCRC to Compound A in the presence of 10 μM DETA-NO • 9. […]

Another experiment has as its system achalasia patients. The note with it: report from 2000; cited from earlier work.
[2] abbreviates: 10 μM compound in the presence of 30 μM DETA-NO.
The mark [3] stands for this setting: in the presence of 30 μM DETA-NO.

As to `OC(CNc1nc(-c2cc(-c3ccon3)n(Cc3ccccc3F)n2)ncc1F)(C(F)(F)F)C(F)(F)F` [Compound A], the relaxation in experiment [1] (10 μM compound in the presence of 1 μM DETA-NO, donor 1) is reported as 16%. Moreover, the maximum relaxation came to 38% in experiment [1] (10 μM compound in the presence of 10 μM DETA-NO, donor 2, N=4); 49% in experiment [1] (10 μM compound, absence of NO, first donor, N=2); 31% in experiment [1] (10 μM compound, absence of NO, second donor, N=2); 51% in experiment [1] (in the presence of 30 μM DETA-NO, donor 2, N=3).
On to `NC(=O)[C@](O)(CNc1nc(-c2cc(-c3ccon3)n(Cc3ccccc3F)n2)ncc1F)C(F)(F)F` [Compound B], for which the “maximum relaxation relative to isoprenaline” value in experiment [1] (setting [2]) amounted to 77%; in experiment [1] (10 μM compound, absence of NO, N=8), 47%. For the same compound, the EC50 in experiment [1] (setting [3]) was 1700 nM.
Regarding `COC(=O)N(C)c1c(N)nc(-c2nn(Cc3ccccc3F)c3ncccc23)nc1N` [Compound C], the “maximum relaxation relative to isoprenaline” value in experiment [1] (setting [2]) was determined as 90%. Also, in experiment [1] (setting [3]), the EC50 was 500 nM.
In the case of `C[C@@]1(C(F)(F)F)C(=O)Nc2nc(-c3nn(Cc4ncccc4F)c4ncc(F)cc34)nc(NCCC(F)(F)F)c21` [Compound D], in experiment [1] (setting [2]), the “maximum relaxation relative to isoprenaline” value was 80%. In experiment [1] (setting [3]), the EC50 turned out to be 1600 nM.
Regarding `Fc1ccccc1Cn1nc(-c2nc(C(F)(F)F)n[nH]2)c2cccnc21` [Compound E], the “maximum relaxation relative to isoprenaline” value in experiment [1] (setting [2]) is reported as 89%. Further, the 50% effective concentration (EC50) in experiment [1] (setting [3]) is 530 nM.
As to `NCCN(CCN)/[N+]([O-])=N/O` [DETA-NO, diethylenetriamine/NO, reference compound], the mean percentage relaxation is 8% in experiment [1] (10 μM DETA-NO alone, second donor, N=5) and 13% in experiment [1] (30 μM DETA-NO alone, second donor, N=4). In addition, in experiment [1] (30 μM DETA-NO alone, Compound B experiments, N=12), the “mean relaxation relative to isoprenaline” value was 7.6%.
As for `CCCc1nn(C)c2c(=O)[nH]c(-c3cc(S(=O)(=O)N4CCN(C)CC4)ccc3OCC)nc12` [sildenafil], in the experiment with achalasia patients, the “effect on LES pressure” value is “able to reduce LES pressure” and the “effect on clinical symptoms” value is “clinical symptoms were not improved”.
